Reference: US8431523B2, “Oligomeric biosurfactants in dermatocosmetic compositions” (priority 2006, dated 2013)
Non-standard residues stand in square brackets, D forms with d. Residues, ends and D or L forms follow the SMILES beside them. *: point of attachment. Palmitoyl = CCCCCCCCCCCCCCCC(=O)*; Myristoyl = CCCCCCCCCCCCCC(=O)*

What was measured:
[1] = test system: E. coli, P. aeruginosa, P. cepacia, S. aureus, including MRSA, S. epidermidis, and C. albicans; format: cell-based
Excerpt: By “antimicrobial” activity is meant the ability to inhibit the growth of at least one microbial organism selected from the group consisting E. coli, P. aeruginosa, S. aureus and C. albicans, as confirmed by optical density measurement (“OD”).
By “inhibition of growth” is meant reduction or absence of an increase greater than 5% in OD, a dimensionless measure of turbidity that is proportional to the amount of microbial cells present in a sample. For illustrative purposes, a OAB according to the present invention is added to a culture plate on which E. coli is present at a final concentration of about 5×10^3 cfu/ml. The plate is then incubated at about 37° C. for about 24 hours at which time the E. coli is resuspended by shaking, and OD is measured at about 600 nm. Thus, a reduction or absence of an increase greater than 5% in OD confirms the antimicrobial nature of the OAB with respect to E. coli.
Minimum inhibitory concentration (“MIC”) is a method well-known to those of skill in the art for expressing antimicrobial activity. A compound to be tested is serially diluted into growth medium, inoculated with culture and then incubated. The MIC is the lowest dilution of compound that inhibits or prevents growth of the target microorganism.
A further aspect of the present invention is directed to oligomeric acylated biosurfactants having a CMC of less than about 100 ppm in an aqueous environment of MEM Solution that reduces the surface tension of the MEM Solution to less than about […] where the OAB consists essentially of two to nine amino acid residues, at least one of which is charged, and has a MIC of less than 100 ppm for at least two of the following microorganisms: E. coli, P. aeruginosa, P. cepacia, S. aureus, including MRSA, S. epidermidis, and C. albicans. OABs meeting this criterion are selected from the group consisting of: Myr-GR-amide (P300); Myr-KK-amide (P315); Pal-HR-amide (P320); Myr-KK-acid (P347); SEQ ID NO 79 (P367); Myr-GHR-amide (P245); Pal-GHR-amide (P250); Myr-GRK-amide (P303); Pal-G-H—[R]^D-amide (P366); SEQ ID NO 84 (368); SEQ ID NO 58 (P370); SEQ ID NO 59 (P360); SEQ ID NO 60 (P373); SEQ ID NO 61 (P376); SEQ ID NO 62 (P369); SEQ ID NO 63 (P379); SEQ ID NO 64 (P381); SEQ ID NO 65 (P416); SEQ ID NO 66 (P383); and SEQ ID NO 67 (P289).

[2] = test system: fibroblast proliferation; test: Cyquant Cell Proliferation Assay; format: cell-based
Description: For purposes of the present invention, proliferation is assessed using the Cyquant® Cell Proliferation Assay from Molecular Probes. This assay measures increased production of cellular nucleic acids that, in turn, results in increased binding of fluorescent dye.

[3] = test system: P. cepacia; test: Minimum inhibitory concentration, P. cepacia; format: cell-based, Pseudomonas cepacia
Excerpt: By “antimicrobial” activity is meant the ability to inhibit the growth of at least one microbial organism selected from the group consisting E. coli, P. aeruginosa, S. aureus and C. albicans, as confirmed by optical density measurement (“OD”). By “inhibition of growth” is meant reduction or absence of an increase greater than 5% in OD, a dimensionless measure of turbidity that is proportional to the amount of microbial cells present in a sample. For illustrative purposes, a OAB according to the present invention is added to a culture plate on which E. coli is present at a final concentration of about 5×10^3 cfu/ml. The plate is then incubated at about 37° C. for about 24 hours at which time the E. coli is resuspended by shaking, and OD is measured at about 600 nm. Thus, a reduction or absence of an increase greater than 5% in OD confirms the antimicrobial nature of the OAB with respect to E. coli. Minimum inhibitory concentration (“MIC”) is a method well-known to those of skill in the art for expressing antimicrobial activity. A compound to be tested is serially diluted into growth medium, inoculated with culture and then incubated. The MIC is the lowest dilution of compound that inhibits or prevents growth of the target microorganism.

Row | Compound | MIC for at least two of the listed microorganisms [1] | increase fibroblast proliferation (qualitative) [2] | MIC(P. cepacia) [3]
1 | CCCCCCCCCCCCCCCC(=O)NCC(=O)N[C@@H](Cc1c[nH]cn1)C(=O)N[C@H](CCCNC(=N)N)C(N)=O [P366, Pal-G-H-[R]^D-amide] (Palmitoyl-Gly-His-[dR]-NH2) | less than 100 ppm | – | –
2 | CCCCCCCCCCCCCCCC(=O)N[C@@H](CC(C)C)C(=O)N[C@@H](C)C(=O)N[C@@H](CCCCN)C(=O)N[C@@H](CCCCN)C(N)=O [P370, Pal-LAKK-amide] (Palmitoyl-LAKK-NH2) | less than 100 ppm | – | –
3 | CCCCCCCCCCCCCC(=O)N[C@@H](CC(C)C)C(=O)N[C@@H](CCCCN)C(=O)N[C@@H](C)C(=O)N[C@@H](CCCCN)C(N)=O [P289, Myr-LKAK-amide] (Myristoyl-LKAK-NH2) | less than 100 ppm | – | –
4 | CCCCCCCCCCCCCC(=O)NCC(=O)N[C@@H](CCCNC(=N)N)C(N)=O [P300, Myr-GR-amide] (Myristoyl-Gly-Arg-NH2) | less than 100 ppm | – | –
5 | CCCCCCCCCCCCCC(=O)NCC(=O)N[C@@H](Cc1c[nH]cn1)C(=O)N[C@@H](CCCNC(=N)N)C(N)=O [P245, Myr-GHR-amide] (Myristoyl-Gly-His-Arg-NH2) | less than 100 ppm | – | –
6 | CCCCCCCCCCCCCC(=O)N[C@@H](CC(C)C)C(=O)N[C@@H](C)C(=O)N[C@H](C(=O)N[C@@H](CCCCN)C(=O)N[C@@H](CCCCN)C(N)=O)[C@@H](C)CC [P376, Myr-LAIKK-amide] (Myristoyl-LAIKK-NH2) | less than 100 ppm | – | –
7 | CCCCCCCCCCCCCC(=O)N[C@@H](CC(C)C)C(=O)N[C@@H](CCCCN)C(=O)N[C@@H](CCCCN)C(=O)N[C@@H](C)C(=O)N[C@@H](CC(C)C)C(=O)N[C@@H](CCCCN)C(N)=O [P381, Myr-LKKALK-amide] (Myristoyl-LKKALK-NH2) | less than 100 ppm | – | –
8 | CCCCCCCCCCCCCC(=O)N[C@H](C(=O)N[C@@H](C)C(=O)N[C@@H](CCCCN)C(=O)N[C@@H](CCCCN)C(N)=O)[C@@H](C)CC [P371, Myr-IAKK-amide] (Myristoyl-IAKK-NH2) | – | increase fibroblast proliferation | ≤ 100 ppm
9 | CCCCCCCCCCCCCCCC(=O)N[C@@H](Cc1c[nH]cn1)C(=O)N[C@@H](CCCNC(=N)N)C(N)=O [P320, Pal-HR-amide] (Palmitoyl-His-Arg-NH2) | less than 100 ppm | – | –
10 | CCCCCCCCCCCCCC(=O)N[C@@H](CCCCN)C(=O)N[C@@H](CCCCN)C(=O)N[C@@H](C)C(=O)N[C@@H](CC(C)C)C(=O)N[C@@H](CCCCN)C(=O)N[C@@H](CCCCN)C(N)=O [P369, Myr-KKALKK-amide] (Myristoyl-KKALKK-NH2) | less than 100 ppm | – | –
11 | CCCCCCCCCCCCCC(=O)NCC(=O)N[C@@H](CCCNC(=N)N)C(=O)N[C@@H](CCCCN)C(N)=O [P303, Myr-GRK-amide] (Myristoyl-Gly-Arg-Lys-NH2) | less than 100 ppm | – | –
12 | CCCCCCCCCCCCCCCC(=O)N[C@@H](CCCCN)C(=O)N[C@H](CCCCN)C(N)=O [P367, Pal-K-[K]^D-amide] | less than 100 ppm | – | –
13 | CCCCCCCCCCCCCC(=O)N[C@H](C(=O)N[C@H](C(=O)N[C@H](C(=O)N[C@@H](CCCCN)C(=O)N[C@@H](CCCCN)C(=O)N[C@@H](CCCCN)C(N)=O)[C@@H](C)CC)[C@@H](C)CC)[C@@H](C)CC [P416, Myr-IIIKKK-amide] (Myristoyl-IIIKKK-NH2) | less than 100 ppm | – | –
14 | CCCCCCCCCCCCCC(=O)N[C@@H](CCCCN)C(=O)N[C@@H](CCCCN)C(N)=O [P315, Myr-KK-amide] | less than 100 ppm | – | –
15 | CCCCCCCCCCCCCC(=O)N[C@@H](C)C(=O)N[C@@H](CCCCN)C(=O)N[C@@H](CCCCN)C(=O)NCC(=O)N[C@@H](CC(C)C)C(=O)N[C@H](CCCCN)C(N)=O [P402, Myr-AKKGL-[K]^D-amide] (Myristoyl-AKKGL[dK]-NH2) | – | increase fibroblast proliferation | ≤ 100 ppm
16 | CCCCCCCCCCCCCC(=O)N[C@@H](CCCNC(=N)N)C(=O)N[C@@H](CCCNC(=N)N)C(=O)N[C@@H](CCCNC(=N)N)C(N)=O [P342, Myr-RRR-amide] (Myristoyl-Arg-Arg-Arg-NH2) | – | increase fibroblast proliferation | ≤ 100 ppm
17 | CCCCCCCCCCCCCC(=O)N[C@@H](CCCCN)C(=O)N[C@@H](CCCCN)C(=O)N[C@@H](C)C(=O)N[C@@H](CC(C)C)C(=O)N[C@@H](CCCCN)C(=O)N[C@@H](C)C(N)=O [P379, Myr-KKALKA-amide] (Myristoyl-KKALKA-NH2) | less than 100 ppm | – | –
18 | CCCCCCCCCCCCCC(=O)N[C@@H](CCCCN)C(=O)N[C@H](C(=O)N[C@H](C(=O)N[C@@H](CCCCN)C(=O)N[C@@H](CO)C(N)=O)[C@@H](C)O)[C@@H](C)O [P190, Myr-KTTKS-amide] (Myristoyl-KTTKS-NH2) | – | increase fibroblast proliferation | ≤ 100 ppm
19 | CCCCCCCCCCCCCCCC(=O)NCC(=O)N[C@@H](Cc1c[nH]cn1)C(=O)N[C@@H](CCCNC(=N)N)C(N)=O [P250, Pal-GHR-amide] (Palmitoyl-Gly-His-Arg-NH2) | less than 100 ppm | – | –
20 | CCCCCCCCCCCCCC(=O)N[C@@H](CO)C(=O)N[C@@H](CCCCN)C(=O)N[C@@H](CCCCN)C(=O)N[C@@H](C)C(=O)N[C@@H](CC(C)C)C(=O)N[C@H](CCCCN)C(N)=O [P408, Myr-SKKAL-[K]^D-amide] (Myristoyl-SKKAL[dK]-NH2) | – | increase fibroblast proliferation | ≤ 100 ppm
21 | CCCCCCCCCCCCCC(=O)N[C@H](CCCCN)C(=O)N[C@@H](CCCCN)C(=O)N[C@H](C)C(=O)N[C@@H](CC(C)C)C(=O)N[C@H](CCCCN)C(N)=O [P360, Myr-[K]^D-K-[A]^D-L-[K]^D-amide] (Myristoyl-[dK]K[dA]L[dK]-NH2) | less than 100 ppm | – | –
22 | CCCCCCCCCCCCCC(=O)N[C@@H](CCCCN)C(=O)N[C@@H](CCCCN)C(=O)O [P347, Myr-KK-acid] | less than 100 ppm | – | –
23 | CCCCCCCCCCCCCC(=O)N[C@@H](CO)C(=O)N[C@@H](CC(=O)O)C(=O)NCC(=O)N[C@@H](CCCNC(=N)N)C(N)=O [P383, Myr-SDGR-amide] (Myristoyl-SDGR-NH2) | less than 100 ppm | – | –
24 | CCCCCCCCCCCCCC(=O)N[C@@H](CCCCN)C(=O)N[C@@H](CCCCN)C(=O)NCC(=O)N[C@@H](CC(C)C)C(=O)N[C@H](CCCCN)C(N)=O [P394, Myr-KKGL-[K]^D-amide] (Myristoyl-KKGL[dK]-NH2) | – | increase fibroblast proliferation | ≤ 100 ppm
25 | CCCCCCCCCCCCCC(=O)N[C@@H](CCCCN)C(=O)N[C@@H](CCCCN)C(=O)N[C@@H](C)C(=O)N[C@@H](CC(C)C)C(=O)N[C@@H](CCCCN)C(=O)O [P349, Myr-KKALK-acid] (Myristoyl-KKALK-OH) | – | increase fibroblast proliferation | ≤ 100 ppm
26 | CCCCCCCCCCCCCC(=O)N[C@@H](CCCCN)C(=O)N[C@@H](CCCCN)C(=O)N[C@@H](CO)C(=O)N[C@@H](CC(C)C)C(=O)N[C@@H](CCCCN)C(N)=O [P373, Myr-KKSLK-amide] (Myristoyl-KKSLK-NH2) | less than 100 ppm | – | –
